{"source": "patent US20160287602A1", "about": "“METHODS FOR PROMOTING MOTOR NEURON SURVIVAL” (PRESIDENT AND FELLOWS OF HARVARD COLLEGE, priority 2013, published 2016)", "key": {"[1]": {"system": "wild-type (Hb9::GFP) mouse ESC derived MNs", "assay": "MN survival after trophic factor withdrawal, mixed culture", "assay_type": "cell-based", "conditions": "for survival of MNs (number of surviving MNs): trophic factor withdrawal, 3 days, wild-type Hb9::GFP MNs", "from_the_text": "In the present study, we have screened highly specific small molecule kinase inhibitors to identify those which could promote MN survival. For the screen, we generated MNs from wild-type (Hb9::GFP) and SOD1^G93A (SOD1^G93A/Hb9::GFP) mouse ESCs using published protocols (Di Giorgio et al., 2007). We withdrew trophic factors as a standard method to induce MN death. Cell plating density as well as timing for initiation and duration of trophic factor withdrawal were used exactly as published to achieve ˜80% MN death in 3 days (FIG. 1A) (Yang et al., 2013). […] We continued to work with this compound class as it reproducibly promoted survival of both MNs types and the effect was robust. We further reasoned that since this compound class promoted survival of both MN types, the probability of its working in other contexts such as on human MNs and in the ALS mouse model was maximum. […]\n(§1) Trophic factors were removed and ZM447439 was added to the cultures as previously and MN survival was analyzed on day 7, 14 & 21."}, "[2]": {"system": "SOD1^G93A (SOD1^G93A/Hb9::GFP) mouse ESC derived MNs", "assay": "MN survival after trophic factor withdrawal, mixed culture", "assay_type": "cell-based", "conditions": "trophic factor withdrawal, 3 days; SOD1^G93A/Hb9::GFP MNs", "from_the_text": "In the present study, we have screened highly specific small molecule kinase inhibitors to identify those which could promote MN survival. For the screen, we generated MNs from wild-type (Hb9::GFP) and SOD1^G93A (SOD1^G93A/Hb9::GFP) mouse ESCs using published protocols (Di Giorgio et al., 2007). We withdrew trophic factors as a standard method to induce MN death. Cell plating density as well as timing for initiation and duration of trophic factor withdrawal were used exactly as published to achieve ˜80% MN death in 3 days (FIG. 1A) (Yang et al., 2013). […] We continued to work with this compound class as it reproducibly promoted survival of both MNs types and the effect was robust. We further reasoned that since this compound class promoted survival of both MN types, the probability of its working in other contexts such as on human MNs and in the ALS mouse model was maximum.\nHigh expression of Aurora kinases is associated with various types of cancer (Sen et al., 1997; Reichardt et al., 2003; Tchatchou et al., 2007) and there are many AKIs including VX-680 and ZM447439 that are in clinical trials for anti-cancer drug development.\nas §1"}, "[3]": {"system": "FACS purified Hb9::GFP MNs", "assay": "MN survival after trophic factor withdrawal, FACS purified MN culture", "assay_type": "cell-based, mouse", "conditions": "FACS purified MN cultures, trophic factors withdrawn, FIG. 1C", "from_the_text": "ESC-derived MN culture achieves ˜30%-50% MN differentiation efficiency and is therefore highly heterogeneous. To examine whether AKIs specifically act in a cell-autonomous or non-cell-autonomous manner, we established a highly enriched MN culture through FACS purification based on Hb9::GFP reporter expression. […] Next, we asked whether AKIs exert their survival promoting effect only cell-autonomously or whether they also function non-cell-autonomously to rescue MN death. To address this question we produced astrocyte conditioned medium (ACM) by incubating primary murine astrocytes with AKIs (VX-680 and ZM447439). The ACM was then dialyzed using a dialyzer with pore size appropriate for eliminating residual AKIs."}, "[4]": {"system": "SOD1^G93A (SOD1^G93A/Hb9::GFP) mouse ESC derived MNs", "conditions": "previous small molecule survival screen (Yang et al., 2013); cited from earlier work"}, "[5]": {"system": "wild-type (Hb9::GFP) mouse ESC derived MNs", "conditions": "previous small molecule survival screen (Yang et al., 2013); cited from earlier work"}, "[6]": {"system": "human iPSC derived MNs (healthy control, SOD1, TDP-43, C90RF72)", "conditions": "human MNs derived from wild-type and ALS-patient-iPSCs (Yang et al., 2013); cited from earlier work"}, "[7]": {"conditions": "ALS (Miller et al., 2007); cited from earlier work"}, "[8]": {"system": "human iPSC derived MNs (healthy control, SOD1, TDP-43, C90RF72)", "assay": "Human iPSC derived MN survival", "assay_type": "cell-based", "conditions": "all human iPSC derived MN cultures; AraC treated", "from_the_text": "We produced MNs from human iPSCs lines including a healthy control, two ALS patients expressing confirmed mutations in SOD1 (Boulting et al., 2011), two with mutations in TDP-43 and one in C90RF72. We treated these cultures with AraC to minimize the number of proliferating progenitors. […] We also examined the effect of SOD 1^G93A astrocytes co-culture on iPSC derived MNs. We found no toxic effect on survival in any of the patient iPSC derived MNs, but we did observe decreased MN survival in the control iPSC derived MNs. […] We also looked at the effect of AKIs on morphology and synapse formation. […] In addition, by immunoblot we observed that ZM447439 enhanced synaptic protein, synaptophysin, expression in both the presence and absence of trophic factors."}, "[9]": {"system": "Prkarlb", "assay": "Prkar1b immunostaining in surviving MNs", "assay_type": "cell-based, mouse", "conditions": "absence of TFs"}, "[10]": {"system": "synaptophysin in Hb9::GFP MN cultures", "assay": "Synaptophysin immunoblotting", "assay_type": "cell-based, mouse"}, "[11]": {"system": "MNs", "assay": "Lentivirus knockdown of Prkarlb, MN survival", "assay_type": "cell-based, mouse", "from_the_text": "(§2) Next we sought to investigate the mechanism by which AKIs promote MN survival. To evaluate this comprehensively we performed microarray analysis to compare gene expression between MNs cultured with: 1) Trophic factors (+TF), 2) No trophic factors (−TF), 3) VX-680 in the absence of TFs, and 4) ZM447439 in the absence of TFs. […] Gene expression was compared between +TF and −TF, VX-680 and −TF, and ZM447439 and −TF. With a cut off of more than 3 fold difference, there were 85 genes overlapping in all three comparison in Hb9::GFP MNs and 57 in SOD1^G93A/Hb9::GFP MNs. We found 39 overlapping genes when we compared both types of MNs (FIG. 5B). […] We analyzed the shortlist of 39 genes by using DAVID functional annotation bioinformatics microarray analysis software to find the potential pathways involved in MN survival. […] PKA is known to phosphorylate BAD protein, leading to increased cell survival (Jose M. LIZCANO et al., 2000; Julian Downward et al., Nature cell biology 1999; Komaki S et al., Neurosci Lett 2012). […] We further investigated this pathway by lentivirus knockdown of Prkarlb."}, "[12]": {"system": "phosphorylated BAD (pBAD)", "assay": "Phosphorylated BAD immunostaining in surviving MNs", "assay_type": "cell-based, mouse", "conditions": "absence of TFs"}, "[13]": {"system": "synaptophysin in SOD1^G93A/Hb9::GFP MN cultures", "assay": "Synaptophysin immunoblotting", "assay_type": "cell-based, mouse"}, "[14]": {"system": "Hb9::GFP MNs", "assay": "Number of synapses per MN (synapsin/PSD-95 co-localization, automated imager)", "assay_type": "cell-based, mouse", "from_the_text": "(§3) To examine whether MNs kept alive by AKIs maintain morphological integrity we carried out a series of analyses on surviving MNs in the absence of trophic factors. […] We also used an automated imager to analyze the number of synapses per MN by counting co-localized regions positive for the presynaptic marker synapsin and the postsynaptic marker PSD-95."}, "[15]": {"system": "SOD1^G93A/Hb9::GFP MNs", "assay": "Number of synapses per MN (synapsin/PSD-95 co-localization, automated imager)", "assay_type": "cell-based, mouse", "from_the_text": "as §3"}, "[16]": {"system": "HuES-3/Hb9::GFP human ESC derived MNs", "assay": "Human ESC derived MN survival after trophic factor withdrawal", "assay_type": "cell-based", "conditions": "trophic factors withdrawn; AraC pre-treated cultures", "from_the_text": "We generated MNs from a human ESC line expressing an HB9::GFP transgene [HuES-3/Hb9::GFP (Di Giorgio et al., 2008)]. Human ESC derived MN cultures were pre-treated with AraC to eliminate progenitor cells. We induced MN death by again withdrawing trophic factors. […] We also investigated the toxic effect of SOD1^G93A astrocytes on human ESC derived MN survival. We found significant death of human MNs cultured on mutant astrocytes."}, "[17]": {"system": "Hb9::GFP and SOD1^G93A/Hb9::GFP MNs", "assay": "Microarray analysis of gene expression in MNs", "assay_type": "cell-based, mouse", "conditions": "compound in the absence of TFs versus -TF", "from_the_text": "as §2"}, "[18]": {"conditions": "ALS drug candidates; cited from earlier work"}}, "note": "“Also recorded” adds a separate entry of the source."}
{"smiles": "COc1cc2ncnc(Nc3ccc(NC(=O)c4ccccc4)cc3)c2cc1OC.Cl", "note": "[4-4-Ben, N-[4-[(6,7-Dimethoxy-4-quinazolinyl)amino]phenyl] benzamide Hydrochloride]", "values": [{"measurement": "survival of MNs (number of surviving MNs)", "setting": "[1]", "value": "consistently increased the survival of MNs"}, {"measurement": "survival of MNs (number of surviving MNs)", "setting": "[2]", "value": "consistently increased the survival of MNs"}, {"measurement": "MN survival", "setting": "[3]", "value": "rescued MN survival in a dose dependent fashion"}]}
{"smiles": "O=C1Cc2c([nH]c3ccc(Br)cc23)-c2ccccc2N1", "note": "[Kenpaullone]", "values": [{"measurement": "healthy survival of MNs", "setting": "[4]", "value": "impressive ability to prolong the healthy survival"}, {"measurement": "healthy survival of MNs", "setting": "[5]", "value": "impressive ability to prolong the healthy survival"}, {"measurement": "survival of human MNs", "setting": "[6]", "value": "able to improve the survival"}]}
{"smiles": "Nc1nc2ccc(OC(F)(F)F)cc2s1", "note": "[Riluzole]", "values": [{"measurement": "functional improvement", "setting": "[7]", "value": "very little functional improvement; also recorded: little functional improvement"}]}
{"smiles": "Cc1cc(Nc2cc(N3CCN(C)CC3)nc(Sc3ccc(NC(=O)C4CC4)cc3)n2)[nH]n1", "note": "[VX-680, Tozasertib]", "values": [{"measurement": "MN survival", "setting": "[8]", "value": "substantially increase MN survival"}, {"measurement": "levels of Prkarlb", "setting": "[9]", "value": "increased levels"}, {"measurement": "survival effect in dose dependent assay, comparison among AKIs", "setting": "[1]; mixed MN culture, FIG. 1B", "value": "most effective and potent in promoting MN survival"}, {"measurement": "survival of MNs (number of surviving MNs)", "setting": "[1]", "value": "consistently increased the survival of MNs; also recorded: most potent and robust at increasing survival"}, {"measurement": "expression of synaptic protein synaptophysin", "setting": "[10]", "value": "increased expression"}, {"measurement": "MN survival on knocking down Prkarlb in the presence of the compound", "setting": "[11]", "value": "effectively decreased MN survival"}, {"measurement": "survival of MNs (number of surviving MNs)", "setting": "[2]", "value": "consistently increased the survival of MNs; also recorded: most potent and robust at increasing survival"}, {"measurement": "levels of phosphorylated BAD (pBAD)", "setting": "[12]", "value": "increased levels"}, {"measurement": "expression of synaptic protein synaptophysin", "setting": "[13]", "value": "increased expression"}, {"measurement": "number of synapses per MN", "setting": "[14]; absence of trophic factors, Hb9::GFP MNs", "value": "preserved the number of synapses"}, {"measurement": "number of synapses per MN", "setting": "[14]; neurotrophin containing medium", "value": "increased the number of synapses per MN"}, {"measurement": "number of synapses per MN", "setting": "[15]; absence of trophic factors, SOD1^G93A/Hb9::GFP MNs", "value": "preserved the number of synapses"}, {"measurement": "number of synapses per MN", "setting": "[15]; neurotrophin containing medium", "value": "increased the number of synapses per MN"}, {"measurement": "MN survival", "setting": "[3]", "value": "rescued MN survival in a dose dependent fashion"}, {"measurement": "human MN survival", "setting": "[16]", "value": "rescued human MN death"}, {"measurement": "expression of genes related to synapse formation (Syt1, Snap25 and Sv2c, Map2 and Dcx)", "setting": "[17]", "value": "upregulated"}]}
{"smiles": "CCCN[C@@H]1CCc2nc(N)sc2C1", "note": "[dexpramipexole]", "values": [{"measurement": "outcome of phase III clinical trials", "setting": "[18]", "value": "failed"}]}
{"smiles": "CC(C)CCC[C@@H](C)[C@H]1CC[C@H]2[C@@H]3CCC4=CC(=NO)CC[C@]4(C)[C@H]3CC[C@]12C", "note": "[olesoxime]", "values": [{"measurement": "outcome of phase III clinical trials", "setting": "[18]", "value": "failed"}]}
